{"source": "patent US20250361297A1", "about": "“ANTI- SIGLEC-15 BINDING MOLECULES AND METHODS OF USE” (ADAPTAM THERAPEUTICS, S.L., priority 2024, published 2025)", "key": {"human macrophages": {"tested_on": "human macrophages", "assay": "Viability of payload-treated human macrophages (Calcein AM / Ethidium Homodimer-1)", "type": "cell-based", "conditions": "free payload; 48-hour incubation; calcein-positive, Ethidium Homodimer-1 negative cells", "experimental": "Macrophage differentiation from CD14+ monocytes: Human peripheral blood mononuclear cells (PBMCs) were isolated from blood donors, who provided informed consent, using density gradient centrifugation. Monocytes were then purified from PBMCs utilizing a CD14 selection kit (Stemcell) according to the manufacturer's instructions. The isolated monocytes were differentiated into macrophages by culturing in RPMI 1640 medium supplemented with 10% FBS and 100 ng/mL macrophage colony-stimulating factor (M-CSF) for 5 days.\nViability assay with Calcein AM: To prepare the viability assay with Calcein AM for flow cytometry, 5 μL of Calcein AM (Component A) and 20 μL of Ethidium Homodimer-1 (Component B) was added to 10 mL of DPBS. Cells were centrifuged at 450×G for 5 minutes to remove the culture medium, and 100-200 μL of the staining solution was added directly to the cells and incubated for 30 minutes at room temperature (20-25° C.). After the incubation, cells were centrifuged at 450×G for 5 minutes to remove the supernatant, and resuspended in 150 μL of DPBS. Cells were analyzed by flow cytometry."}, "[1]": {"tested_on": "osteoclast differentiation", "assay": "Osteoclast differentiation in vitro (TRACP 5b in culture medium)", "type": "cell-based", "conditions": "relative to baseline levels; culture medium at day 7 (FIG. 46)"}}, "note": "Where a SMILES comes first, the peptide text is derived from it. [ ]: non-standard residue; d: D form. The star is where a group is joined. Dolaproine = CO[C@@H]([C@@H]1CCCN1)[C@@H](C)C(=O)O; Dil = CC[C@H](C)[C@H](NC)[C@@H](CC(=O)O)OC; X1 = C[C@@H](N*)[C@@H](O)c1ccccc1; NMeV = CN[C@H](C(=O)O)C(C)C", "data": [{"molecule": "CC[C@H](C)[C@@H]([C@@H](CC(=O)N1CCC[C@H]1[C@H](OC)[C@@H](C)C(=O)N[C@H](C)[C@@H](O)c1ccccc1)OC)N(C)C(=O)[C@@H](NC(=O)[C@@H](NC)C(C)C)C(C)C", "note": "[MMAE, monomethylauristatin E] (H-[NMeV]V[Dil][Dolaproine]-X1)", "values": [{"measurement": "loss of cell viability of human macrophages", "setting": "human macrophages", "value": "at a lower concentration than Exatecan"}]}, {"molecule": "denosumab: control that reduced osteoclast differentiation [reference compound]", "values": [{"measurement": "effect on osteoclast differentiation (TRACP 5b)", "setting": "[1]", "value": "reduced differentiation"}]}]}
